Test results as given in patent US20240366594A1, “Small Molecule Inhibitors of Formation of Neutrophil-Derived Extracellular Traps (NETosis) and Uses Thereof” (The Brigham and Women's Hospital, Inc., priority 2021, published 2024).

Test system: human neutrophils
Experiment: Expansion of nuclei (area of DAPI-stained nuclei) in PMA-treated human neutrophils
Assay type: cell-based
Details: 1 μM PMA; FIGS. 1C and 1D
Description: FIGS. 1A-H. Class I/II HDACs drive NET formation • (A and B) Freshly purified human (A) or mouse (B) neutrophils were treated with the indicated HDAC inhibitors at different doses (10, 2, 0.4, 0.08 μM), or with GSK484 (10 μM), for 1 h and then stimulated with 1 μM PMA for 3 h. Cells were fixed and stained with anti-citrullinated histone H3 (CitH3) antibody. NETosis induction was measured as the level of anti-CitH3 fluorescent signal. PMA alone represents 100% of NET induction. “-”: Cells treated with the highest dose of the indicated drug but not activated with PMA. • (C and D) Human neutrophils were treated, or not, with ricolinostat or GSK484 and then stimulated with 1 μM PMA. NETosis induction was measured as area of nuclei stained with DAPI. (C) 3D reconstruction of nuclei in each treatment (grid size 7.8 μm). (D) Quantification of DAPI signal from multiple fields of view (D) (n=9 for unstimulated, not pretreated with any drug [NT] and ricolinostat, n=7 for GSK484). • (E and F) Human neutrophils were treated as in (C-D), and immunoblot analysis of the indicated proteins was performed. Relative quantification of band intensity was analyzed with ImageJ software (F). White violins plots depict the quantification of histone H3 acetylation; red violin plots depict the quantification of histone H3 citrullination. […] ROS production was measured by luminescence with luminol-HRP. […]

O=C(CCCCCCNC(=O)c1cnc(N(c2ccccc2)c2ccccc2)nc1)NO [ricolinostat]
expansion of nuclei (area of nuclei stained with DAPI): significantly reduced
